Key:
[1] = MTT/SRB cytotoxicity assay; format: cell-based; conditions: human, HepG2 cells; HepG2, after 48 h
Method: The MTT assay was performed to assess the cytotoxicity of the samples on the HepG2 cell line. Approximately 8000 cells per well were cultured in a 96-well plate for 24 h at 37 °C with 5 % CO2 in DMEM medium supplemented with 10 % FBS and 1 % antibiotic solution. The following day, cells were exposed to various dosages and concentrations ranging from 1 to 2500 μM, prepared using incomplete medium to achieve the desired concentrations. After a 24-h incubation period, 100 μL of 10 % trichloroacetic acid (TCA) was added to each well and incubated for 1 h. Then, the plate was washed with distilled water and allowed to dry at room temperature. MTT solution was added to each well at a final concentration of 0.04 % and was allowed to sit for 1 h. After an hour of incubation, the plate was air-dried at room temperature before being cleaned with 1 % (v/v) acetic acid to remove any remaining color. To solubilize the protein-bound dye, Tris base solution (pH = 10.5) was added to a well and shaken for 10 min on an orbital shaker. The protein-bound dye was then detected at 510 nm using an ELISA plate reader (iMark, Biorad, USA).
The cytotoxicity of the samples was evaluated using the HepG2 cell line, obtained from NCCS Pune, through the MTT assay. […] The results were measured at 540 nm and 660 nm using a Bio-Rad ELISA plate reader (USA). The IC50 value was calculated using GraphPad Prism 9 software. […]

HepG2 cells [2] = assay: ROS estimation with flow cytometry (DCFDA); format: cell-based, human; conditions: HepG2, 24 h, Control 1 %
Method: Cells were seeded into six-well plates at densities ranging from 5000 to 10,000 HepG2 cells per well, using 1 mL of DMEM media supplemented with 10 % FBS and 1 % antibiotic solution. The plates were then incubated at 37 °C with 5 % CO2 for 24 h. Prior to treatment, the old culture medium was replaced with fresh medium, designating untreated cells as controls. Following the protocol by Gupta et al. cells were treated with various agents and further incubated for 24 h. After incubation, the medium was removed, and cells were detached using trypsin-EDTA, transferred to 1.5 mL tubes, and washed with 500 μl of cold PBS. The cell pellet was resuspended in 100 μl of PBS containing 2 μM DCFDA, and samples were incubated for 1 h before analysis using a BD FACS Calibur flow cytometer (USA). Data were processed using version 2.5.1 of the Flowing software program.

HepG2 cell lines = assay: Cellular apoptosis with flow cytometry (Annexin V-FITC/PI); format: cell-based, human; conditions: HepG2, IC50 dose
Method: HepG2 cell lines, obtained from NCCS Pune, were cultured and treated with the compound's IC-50 dosage. Post-treatment, the cells were divided into five groups: unstained cells, control group, annexin-only, PI-only, and treatment. The cells were then resuspended in 1X binding buffer at a concentration of 1 × 10^6 cells/mL. FITC and PI from Annexin V were added to the appropriately labeled tubes. According to Zhan et al., 1X binding buffer was added to each tube, and they were incubated for 15 min at room temperature. The samples were analyzed using a BD FACS Lyric™ flow cytometer within an hour.

[3] = In vitro release of dasatinib (dialysis bag); format: physicochemical; conditions: 12 h, pH 7.4, 37 °C
Method: To imitate the journey of polymeric micelles through the gastrointestinal tract, an in vitro drug release test was conducted. To simulate drug release from polymeric micelles, a release test was conducted using a phosphate buffer solution at pH 7.4 over 12 h, starting at the 0.5-h mark. The pH of human blood and most bodily tissues is roughly 7.4. Performing the release research at this pH allows us to forecast how dasatinib will behave once taken into the bloodstream and dispersed throughout the body. […] This information aids in evaluating how much of the drug can reach the systemic circulation for therapeutic activity. Each test was performed in a medium containing 0.5 % w/v Tween 20 to maintain sink conditions. A dialysis bag containing 1 mL of a freshly prepared dispersion of dasatinib-loaded micelles was sealed with clips and placed into a glass container filled with 90 mL of […]. This setup was incubated in a water bath set at 37 °C with agitation at 150 rotations per minute. At specified time intervals ([…]), 5 mL samples of the release medium were withdrawn and replaced with fresh medium to maintain volume consistency. The amount of drug released was measured by analyzing the UV absorbance of the samples at 323 nm. A standard curve for […] in each medium was used for the quantification. […]

HepG2 liver cell lines = assay: In-vitro scratch assay; format: cell-based, human; conditions: HepG2, after 48 h of treatment
Excerpt: The aim of the in-vitro scratch test is to assess how effectively cancer cell growth is curbed.

HepG2 cells [4] = assay: Cellular uptake (fluorescence microscopy, flow cytometry); format: cell-based, human; conditions: HepG2, 50 and 100 μg/mL DAS, 1 and 4 h
Method: The cellular uptake of DAS polymeric micelles was evaluated by examining the uptake of DAS by HepG2, hepatocellular carcinoma, and murine melanoma cells after exposure to free DAS and DAS-PMs micelles. Cells were visualized under a fluorescence microscope, and the DAS fluorescence intensity in treated cells was measured using flow cytometry. Fluorescent micrographs depicted HepG2 cells that had been treated with free DAS and DAS-PMs for durations of 0, 1, and 4 h. […] This rise was in comparison to the control group. However, DAS-PMs may quickly accumulate in HepG2 cells, as indicated by the vivid green fluorescence—even just 1 h after. When cells were treated with DAS-PMs for 4 h, the fluorescence intensity increased much more than after 1 h. At the 1- and 4-h time points, the fluorescence intensity in cells treated with 100 μg/mL of DAS in DAS-PMs was considerably higher than that in cells treated with 50 μg/mL of DAS. The dose- and time-dependent rise in fluorescence intensity was quantitatively evaluated using flow cytometry on HepG2 cell lines, as illustrated in Fig. 12.

HepG2 cells [5] = assay: Cell cycle analysis with flow cytometry; format: cell-based, human; conditions: HepG2, 24 h at IC50
Method: Specimens were placed on cells and incubated for 24 h. The cells that were not subjected to any treatment were the control cells. After the set incubation duration, trypsin was applied to detach the cells. Subsequently, the cells were gathered in a 1.5-mL vial and rinsed with 500 μL of chilled PBS [39]. A suspension of approximately 10^6 cells was prepared by gently vortexing 100 μL of PBS, resulting in a monodispersed cell suspension with minimal aggregation. The cells were then fixed by adding this solution to centrifuge tubes containing 900 μL of 70 % ethanol on ice, followed by incubation at 4 °C for at least 2 h. Cells can be stored in 70 % ethanol at 4 °C for several weeks. According to Sun et al. after centrifugation post-fixation, the cell pellet was resuspended in 500 μL of Propidium Iodide (PI) staining solution (0.1 % (v/v) Triton X-100, 10 μg/mL PI, and 100 μg/mL DNase-free RNaseA in PBS). The mixture was incubated in the dark for 30 min at room temperature or 10 min at 37 °C. Finally, samples were analyzed using a flow cytometer.

In vivo pharmacokinetics = assay: In vivo pharmacokinetics; design: species or system Male Wistar rats; conditions: male, Wistar; for Cmax / Tmax: rat plasma
Method: Male Wistar rats, each weighing 200 ± 10 g, were obtained from the Experimental Animal Centre at NMIMS University. The study was conducted in accordance with the guidelines approved by the NMIMS University Animal Experimental Ethics Committee (protocol number SPTM/09/2023/IAEC/05). […] The total dose of DAS in two group was 5 mg/kg via intravenous. Blood samples (0.4 mL) were collected from the rats via intravenous injection at specified time intervals (0.5, 1, 2, 3, 4, 5, 6, 8, 10, and 12 h) and were immediately transferred into heparinized tubes. The samples were centrifuged at 12,000 rpm for 10 min to separate the plasma, which was then stored at −20 °C until analysis. The plasma samples were subsequently subjected to high-performance liquid chromatography (HPLC) to determine the concentration of dasatinib. The blood extraction process was conducted as follows: Initially, 15 μL of an internal standard solution (methanol, 10 μg/mL) was added to each tube containing 0.4 mL of blood, followed by vortexing for 1 min. Subsequently, 1 mL of acetonitrile was added, and the mixture was vortexed for an additional minute. The samples were then centrifuged at 12,000 rpm for 10 min. After centrifugation, the organic layer was carefully transferred to a sterile tube and evaporated under a gentle nitrogen stream. The dried extracts were reconstituted in 0.4 mL of a methanol/water solution (70/30, v/v) before undergoing high-performance liquid chromatography (HPLC) analysis. The pharmacokinetic parameters were calculated using the DAS 2.1.1 software (Shanghai, China).

[6] = plasma, rat, 5 mg/kg via intravenous

drug released [3]: 40%
Cmax (In vivo pharmacokinetics; intravenous, 5 mg/kg): 12330 ± 60 ng/mL
Tmax (In vivo pharmacokinetics; intravenous, 5 mg/kg): 2 h
MRT (In vivo pharmacokinetics; [6]): 3.3 h
half-life (In vivo pharmacokinetics; [6]): 4.08 ± 0.786 h
Cmax (In vivo pharmacokinetics; 5 mg/kg via intravenous): 12300 ± 2310 ng/mL
Tmax (In vivo pharmacokinetics; 5 mg/kg via intravenous): 2 h
Compound: Cc1nc(Nc2ncc(C(=O)Nc3c(C)cccc3Cl)s2)cc(N2CCN(CCO)CC2)n1 [DAS, dasatinib]
viability at 48 h [1]: 12.2 ± 0.63%
ROS, MFI-positive cells (HepG2 cells [2]): 3.09%
early apoptotic cells (HepG2 cell lines; control 3.38 %): 0.6%
necrotic cells (HepG2 cell lines; control 13.28 %): 18.1%
late apoptotic cells (HepG2 cell lines; control 19.56 %): 72.4%
cell migration (scratch wound) (HepG2 liver cell lines): curbed cell migration
fluorescence intensity (cellular uptake) (HepG2 cells [4]): slight rise in fluorescence intensity
percentage of cells in G2 phase (HepG2 cells [5]; control 18.14 %): 11.94%
percentage of cells in S phase (HepG2 cells [5]; control 20.04 %): 14.22%
percentage of cells in G1 phase (HepG2 cells [5]; control 58.18 %): 67.14%

— publication PMC11570312, “Development, optimization, and characterization of polymeric micelles to improve dasatinib oral bioavailability: Hep G2 cell cytotoxicity and in vivo pharmacokinetics for targeted liver cancer therapy” (Heliyon, 2024)
